Test results from the pKa sets of Baltruschat and Czodrowski (2020).

Details: acidic group

Compound | pKa
Oc1cc[nH+]c(O)c1 | 1.37
O=C1Oc2ccccc2C(=O)C1CC1C(=O)Oc2ccccc2C1=O (stereo not drawn) | 5.5
C[C@@H]1CCCC[C@@H]1C(=O)O | 5.04
CC[NH+](CC)Cc1cccc(C)c1O | 10
O/N=C/c1ccncc1 | 9.91
FC(F)(F)c1cc(C(F)(F)F)[nH]n1 | 7.51
N#C/C(=C(\[O-])O)c1ccccc1 | 8.7
OC(O)c1cccnc1 | 13.1
S=CNc1ccc(Cl)cc1 | 10.8
S=C1NCCO1 | 11.1
CN1CCC(=O)NC1=O | 11.9
O=c1cc(-c2ccccc2)oc2c(O)cccc12 | 7.82
CC(C)(C)CC(=O)O | 5.01
CCSc1nccc(O)[n+]1C | 0.9
CCCCN[N+](=O)[O-] | 6.48
O=C(C[N+](=O)[O-])c1ccccc1 | 5.19
CC(C)(C)Cc1ccc(O)cc1 | 10.7
O=C(O)CCCCC1CCSS1 (stereo not drawn) | 4.82
Cc1cc(Nc2ccc([O-])cc2)cc(C)c1O | 10.9
CCCCC1(CC)C(=O)[N-]C(=S)NC1=O | 12.1
O=c1oc2c(O)c(O)cc3c(=O)oc4c(O)c(O)cc1c4c23 | 6.59
CC(C)SC(C)C(=O)O (stereo not drawn) | 3.78

Compound | pKa
O=C1CCCC1=O | 9.14
N#C[C@H]1CCCC[C@@H]1C(=O)O | 3.86
CCN(CC)C(=S)S | 3.95
[O-]c1ccc(Nc2ccc(O)cc2)cc1 | 10.6
NNC(=O)C(F)(F)C(F)(F)F | 7.92
O=C(O)c1csc(Br)c1 | 3.7
O=C([O-])C[NH+](CC(=O)[O-])Cc1ccccc1O | 8.17
NC(=O)NS(=O)(=O)c1ccc(N)cc1 | 5.41
CC(=O)CC(=O)C(C)(C)C | 9.94
O=C1C[C@@H](C(=O)O)[C@@H](C(=O)O)O1 | 2.26
N#CC(C#N)=NNc1ccc([N+](=O)[O-])cc1 | 5.5
Oc1ccc(O)c(Br)c1 | 8.67
[O-]c1cc(O)nc[nH+]1 | 5.4
OCCCl | 14.4
Nc1ccc(S(=O)(=O)Nc2ncco2)cc1 | 6.5
O=C(O)COc1ccccc1 | 3.15
O=C(O)/C(Cl)=N/O | 1.5
Cc1cc(/N=N/c2nc3ccccc3s2)c2cccnc2c1O | 7.5
O=C1COC(=O)C1Cl (stereo not drawn) | 2.13
O=c1cccccc1S | 5.9
CCCC(C)C1(CC)C(=O)NC(=O)NC1=O (stereo not drawn) | 8.08
C[n+]1c2ccccc2cc2ccc(N)cc21 | 11.8

Compound | pKa
CC(Br)C(=O)O (stereo not drawn) | 2.97
C[NH+](C)CCCCCCNC(=O)/C=N/O | 8.93
Cc1nc2nc([O-])[nH]c(=O)c2[nH]1 | 9.7
Sc1cccc[nH+]1 | -1.22
CC(=N\O)/C(C)=N/O | 10.6
Oc1cccc2scnc12 | 8.77
Oc1ccc2nnccc2c1 | 7.52
O=[N+]([O-])c1n[nH]c(Oc2ccccc2)n1 | 4.2
O=C1NC(=O)c2cc(Cl)ccc21 | 9.48
CC(C)(C)C1C(=O)NC(=O)NC1=O | 7.98
Cc1cccc(C)c1O | 10.6
CC(=O)c1ccc([N+](=O)[O-])cc1 | 16.6
Cc1ccc(C(=O)O)s1 | 3.76
Cc1cnc2c(O)cccc2c1 | 9.75
CC1(C)OC(=O)C[C@H]2[C@@H](C(=O)O)[NH2+]C[C@H]21 | 2.27
CCC(=O)NO | 9.46
NC(=S)Nc1ccc(Br)cc1 | 12.3
O=C(O)[C@H]1CC[C@@H](O)CC1 | 4.84
O=C(O)c1ccc(Cl)c([N+](=O)[O-])c1 | 3.33
Nc1cc(O)ccc1O | 10.1
O=C(O)C(CO)[NH2+]Cc1cc([N+](=O)[O-])ccc1O (stereo not drawn) | 2.15
CC(C)CC(=O)CC(=O)C(F)(F)F | 6.52

Compound | pKa
N#CCC[n+]1ccc(C(N)=O)cc1.[Br-] | 13.3
Cc1csc(NS(=O)(=O)c2ccc(N)cc2)n1 | 7.12
N#Cc1c(-c2nc3cc(Cl)ccc3o2)c(=O)oc2cc(O)ccc12 | 6
C[N+](C)(C)CCCC(=O)O | 4.02
COc1nc(C)cc(O)[nH+]1 | 1.6
O=C1C=CC(=Nc2ccc(O)cc2)C=C1 | 8.1
O=C1COC=C([O-])C1=O | 10.5
O=C(O)Cc1nnn[nH]1 | 3.1
Cc1cc([N+](=O)[O-])ccc1NN=C(C#N)C#N | 5.5
Cc1cc(S(=O)(=O)Nc2nccs2)ccc1N | 7
[O-][N+]([O-])=C(CO)CO | 13.5
O=C(O)c1c(O)cccc1[N+](=O)[O-] | 2.24
C[NH+](C)CCc1cccc(O)c1 | 9.24
CNc1ncnc2nc[nH]c12 | 10
[NH3+]CC(=O)N[C@@H](Cc1c[nH]c[nH+]1)C(=O)O | 2.61
CC([SeH])C[NH3+] (stereo not drawn) | 5.19
c1ccc2c(c1)ccc1nc[nH]c12 | 12.5
CCNc1nnn[nH]1 | 6.12
CC(C)COc1ccc(C(=O)O)cc1 | 4.48
Oc1cc[n+](OCc2ccccc2)cc1 | 2.58
COc1ncc2[nH]cnc2n1 | 9.2
O=C(NO)c1ccncc1 | 7.82
